Experimental data as given in US8575187B2, “Combinations of anilinopyrimidines and pyrion compounds” (Janssen Pharmaceutica, NV, priority 2008, dated 2013).

What was measured:
Type in all cases: cell-based
[1] = tested on: Chaetomium globosum ATCC6205; assay: Poison Plate Assay, fungi on Glucose Agar; conditions: % (I-a) + % (II-g), ppm total active ingredient, growth evaluated after two weeks, 27° C.
Protocol: (§1) Experiment 1: Poison Plate Assay
(§2) • pyrimethanil (I-a) • cyprodinil (I-b) • mepanipyrim (I-c) Name of Component (II): • 1-hydroxy-2-pyridinone (II-a) • ciclopirox (II-b) • ciclopirox olamine (II-c) • piroctone (II-d) • piroctone olamine (II-e) • rilopirox (II-f) • pyrion disulfide (II-g) • sodium pyrithione (II-h) • zinc pyrithione (II-i) Test Models: • Fungi: to each well of a 24-well microtiter plate, 1000 μl of Glucose Agar (GA: 10 g glucose, 1.5 g K2HPO4, 2 g KH2PO4, 1 g (NH4)2SO4, 0.5 g MgSO4 and 12.5 g agar in 1 liter deionised water) containing the appropriate combination of the test compounds in one of the concentrations of a dose series is added. The nutrient medium is inoculated with the test fungi by adding a spore/mycelium suspension (10 μl) or a small piece of agar from the margin of an actively growing colony and incubated under dark at 27° C. with 70% relative humidity. […] The nutrient medium is inoculated by adding 10 μl of an actively growing liquid culture of the test bacteria in tryptose broth (without agar), and incubated under dark at 27° C. with 70% relative humidity. The growth is evaluated after five days. Concentrations: • Synergy experiment with hydroxypyridone: • MIC values for single compounds were collected from previous screening experiments. These MIC values were used as a guide in determining of the most suitable test dose ranges. For the combination experiments, two overlapping dose series were used, in order to maximise the chance of the MIC values falling within the test concentration range for all combinations: • Series 1: 50.00-37.50-28.13-21.09-15.82-11.87-8.90-6.67-5.01-3.75-2.82-2.11 ppm • Series 2: 25.00-18.75-14.06-10.55-7.91-5.93-4.45-3.34-2.50-1.88-1.41-1.06 ppm • Synergy experiments with bispyrithione and sodium pyrithione: 10.00-7.50-5.63-4.22-3.16-2.37-1.78-1.33-1.00-0.75-0.56-0.42 ppm
(§3) (2000) “Measuring synergy” cosmetics & Toiletries 115(11): 59-62; and Lada, A., A. N. Petrocci, H. A. Green, and J. J. Merianos (1977) “Antimicrobial composition” U.S. Pat. No. 4,061,750, 3 pp.): […]

[2] = tested on: Staphylococcus aureus (g+) LMG 8064; assay: Poison Plate Assay, bacteria on Tryptose Agar; conditions: ppm total active ingredient, growth evaluated after five days, 27° C.
Protocol: as §1, §2, §3

[3] = tested on: Ulocladium atrum IMI214699a; assay: Poison Plate Assay, fungi on Glucose Agar; conditions: % (I-a) + % (II-h), ppm total active ingredient, growth evaluated after two weeks, 27° C.
Protocol: as §1, §2, §3

`[O-][n+]1ccccc1SSc1cccc[n+]1[O-]` [(I-a) + (II-g) 0 + 100, pyrion disulfide] showed an MIC ([1]; ATCC6205, 336 h, read-out: MIC-values (minimum inhibitory concentration) in ppm) of 40 µg/mL and an MIC ([2]; LMG8064, 120 h, % (I-a) + % (II-g), read-out: MIC-values (minimum inhibitory concentration) in ppm) of 213 µg/mL.
In the case of `Cc1cc(C)nc(Nc2ccccc2)n1` [(I-a) + (II-h) 100 + 0, pyrimethanil], the “MIC-values (minimum inhibitory concentration) in ppm” value [3] is reported as 3.16 ppm and the “MIC-values (minimum inhibitory concentration) in ppm” value ([2]; % (I-a) + % (II-h)) is reported as 4.22 ppm.
In the case of `Cc1cc(C)nc(Nc2ccccc2)n1` [(I-a) + (II-g) 100 + 0, pyrimethanil], the “MIC-values (minimum inhibitory concentration) in ppm” value [1] is reported as 1.78 ppm and the “MIC-values (minimum inhibitory concentration) in ppm” value ([2]; % (I-a) + % (II-g)) is reported as 3.16 ppm.
